Among the data in PubChem BioAssay (NCI) are TGI and GI50 values, retold here.

Among the test systems are RPMI-8226 leukemia; SF-268 CNS; HCT-116 colon; KM12 colon; HT29 colon; LOX IMVI melanoma; SK-OV-3 ovarian; OVCAR-8 ovarian; SW-620 colon; COLO 205 colon.
Holding throughout (assay): inhibition of tumour cell growth, NCI panel, 48 h

Each structure is given as a SMILES string.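 Assay format: 96-well plates, 48-hour exposure. GI50: concentration for 50% inhibition of growth. The concentration for full growth arrest is given as TGI.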 Some results are limits rather than exact numbers.

Take `CCOc1ccccc1NC(=O)CCc1nc(=S)[nH][nH]1`: the TGI in the assay on RPMI-8226 leukemia, in the assay with SF-268 CNS, with HCT-116 colon, with KM12 colon, with HT29 colon and in the assay with LOX IMVI melanoma was more than 100 µM in each case. The TGI with SK-OV-3 ovarian, with OVCAR-8 ovarian, in the assay on SW-620 colon and in the assay on COLO 205 colon was more than 100 µM in each case.

In the case of `CCN(CC)CCCC(C)Nc1c2ccc(C)cc2nc2ccc(OC)cc12` (stereo not given), the GI50 in the assay on RPMI-8226 leukemia is 1.75 µM; with SF-268 CNS it was 2.53 µM; in the assay on HCT-116 colon it was 0.585 µM; in the assay with KM12 colon, 1.39 µM; in the assay on HT29 colon it was 0.37 µM; with LOX IMVI melanoma it was 1.38 µM. The GI50 in the assay with SK-OV-3 ovarian is 2.42 µM; with OVCAR-8 ovarian, 0.521 µM; in the assay on SW-620 colon, 0.709 µM; with COLO 205 colon, 1.21 µM. Moreover, the TGI stood at 5.05 µM with RPMI-8226 leukemia; 13.5 µM in the assay with SF-268 CNS; 6.46 µM in the assay with HCT-116 colon; 9.19 µM with KM12 colon; 3.32 µM in the assay with HT29 colon; 3.7 µM with LOX IMVI melanoma. Moreover, the TGI worked out at 15.7 µM with SK-OV-3 ovarian, 3.53 µM with OVCAR-8 ovarian, 10.2 µM in the assay on SW-620 colon and 2.96 µM with COLO 205 colon.

As to `COC(=O)c1nc(N)[nH]c(=O)c1CCCCCc1c(C(=O)OC)nc(N)[nH]c1=O`, the TGI with RPMI-8226 leukemia, with SF-268 CNS, with HCT-116 colon, in the assay with KM12 colon, in the assay with HT29 colon and in the assay on LOX IMVI melanoma was more than 50 µM in each case. The TGI in the assay on SK-OV-3 ovarian, with OVCAR-8 ovarian, in the assay on SW-620 colon and in the assay on COLO 205 colon was more than 50 µM each time.

On to `C=C=C(C(=O)OC)S(=O)c1ccc([N+](=O)[O-])cc1[N+](=O)[O-]` (stereo not given), for which the TGI with RPMI-8226 leukemia is 55.1 µM; in the assay with SF-268 CNS it was more than 74.6 µM; with HCT-116 colon it was 50.3 µM; in the assay on KM12 colon it was more than 72 µM; with HT29 colon, 52.9 µM; in the assay on LOX IMVI melanoma, 46.4 µM. Besides, the TGI in the assay with SK-OV-3 ovarian is more than 100 µM; in the assay on OVCAR-8 ovarian it was 55.1 µM; with SW-620 colon, 36.3 µM; in the assay with COLO 205 colon, 52.7 µM.

For the molecule `COc1ccc(-c2cn[nH]c2-c2cc(OC)c3c(c2)OCCO3)cc1`, the GI50 was 0.373 µM in the assay with RPMI-8226 leukemia; 1.03 µM in the assay with SF-268 CNS; 0.0708 µM in the assay on HCT-116 colon; 0.0502 µM in the assay with KM12 colon; 0.0421 µM in the assay with HT29 colon; 0.581 µM in the assay on LOX IMVI melanoma. Also, the GI50 with SK-OV-3 ovarian is 0.4 µM; in the assay on OVCAR-8 ovarian it was 0.363 µM; in the assay with SW-620 colon, 0.0506 µM; with COLO 205 colon, 0.0591 µM. The TGI was 25.2 µM in the assay with RPMI-8226 leukemia; more than 74.2 µM in the assay with SF-268 CNS; 13.9 µM in the assay on HCT-116 colon; 7.85 µM in the assay with KM12 colon; 11.2 µM in the assay on HT29 colon; 15.2 µM with LOX IMVI melanoma. In addition, the TGI in the assay with SK-OV-3 ovarian was 35.5 µM; with OVCAR-8 ovarian it was 21 µM; in the assay on SW-620 colon, more than 72.5 µM; in the assay on COLO 205 colon it was 0.585 µM.

Consider `O=C1c2ccccc2-n2c1nc1ccccc1c2=O`, for which the TGI in the assay with RPMI-8226 leukemia is more than 100 µM; in the assay on SF-268 CNS, more than 100 µM; in the assay on HCT-116 colon it was 79.6 µM; in the assay with KM12 colon, more than 67.1 µM; in the assay with HT29 colon, 51.2 µM; with LOX IMVI melanoma it was 25.1 µM. Moreover, the TGI in the assay on SK-OV-3 ovarian is more than 100 µM; in the assay with OVCAR-8 ovarian, more than 82.4 µM; with SW-620 colon it was 70.1 µM; in the assay with COLO 205 colon, 27.8 µM.

Consider `COC(=O)c1c(-c2ccccc2)sc(-c2cccc3ccccc23)c1C(=O)OC`, for which the TGI in the assay with RPMI-8226 leukemia, with SF-268 CNS, in the assay with HCT-116 colon, in the assay on KM12 colon, in the assay on HT29 colon and in the assay with LOX IMVI melanoma was more than 100 µM each time. Besides, the TGI in the assay on SK-OV-3 ovarian, in the assay with OVCAR-8 ovarian, in the assay on SW-620 colon and with COLO 205 colon was more than 100 µM in each case.

Consider `CCCCCCN(CCCCCC)CC(O)c1ccc2c3c(cccc13)CC2` (stereo not given), for which the GI50 in the assay on RPMI-8226 leukemia is 3.02 µM; in the assay on SF-268 CNS, 12 µM; in the assay on HCT-116 colon it was 1.68 µM; in the assay with KM12 colon it was 5.3 µM; with HT29 colon, 1.18 µM; in the assay on LOX IMVI melanoma it was 3.42 µM. In addition, the GI50 in the assay on SK-OV-3 ovarian was 14.1 µM; in the assay on OVCAR-8 ovarian it was 13.1 µM; in the assay with SW-620 colon, 3.17 µM; in the assay with COLO 205 colon, 5.56 µM. Besides, the TGI was found to be 9.83 µM in the assay on RPMI-8226 leukemia; 24.9 µM in the assay with SF-268 CNS; 13.2 µM in the assay with HCT-116 colon; 18.9 µM in the assay with KM12 colon; 13.2 µM with HT29 colon; 14.6 µM in the assay with LOX IMVI melanoma. Moreover, the TGI in the assay with SK-OV-3 ovarian turned out to be 27.6 µM; with OVCAR-8 ovarian, 29.4 µM; with SW-620 colon, 14.9 µM; in the assay on COLO 205 colon it was 19.8 µM.

As for `COC(=O)CCC1=C(C)/C(=C/c2[nH]c(-c3ccc[nH]3)cc2OC)N=C1C`, the GI50 is 0.272 µM in the assay with RPMI-8226 leukemia; 0.708 µM in the assay on SF-268 CNS; 0.331 µM in the assay on HCT-116 colon; 0.389 µM in the assay with KM12 colon; 0.267 µM in the assay with HT29 colon; 0.17 µM in the assay with LOX IMVI melanoma. The GI50 in the assay with SK-OV-3 ovarian is 3.93 µM; in the assay with OVCAR-8 ovarian, 0.39 µM; with SW-620 colon, 0.333 µM; in the assay on COLO 205 colon, 0.618 µM. Also, the TGI with RPMI-8226 leukemia came to 1.38 µM; in the assay on SF-268 CNS, 7.01 µM; with HCT-116 colon, 1.41 µM; in the assay with KM12 colon, 2.39 µM; in the assay with HT29 colon, 2.03 µM; in the assay with LOX IMVI melanoma, 0.612 µM. Further, the TGI with SK-OV-3 ovarian came to 11.6 µM; in the assay with OVCAR-8 ovarian it was 6.69 µM; in the assay on SW-620 colon it was 1.67 µM; with COLO 205 colon, 1.72 µM.

Take `CCOC(=O)C(/C=N\C(=S)Nc1ccc(OCC)cc1)=C(/O)c1ccccc1`: the TGI in the assay on RPMI-8226 leukemia, in the assay on SF-268 CNS, with HCT-116 colon, with KM12 colon, in the assay with HT29 colon and in the assay on LOX IMVI melanoma was more than 100 µM each time. The TGI in the assay with SK-OV-3 ovarian, with OVCAR-8 ovarian, in the assay on SW-620 colon and with COLO 205 colon was more than 100 µM each time.
